How the values were obtained:
Type in all cases: cell-based
[1] = test system: Enterococcus faecalis 2041; assay: MIC, standard broth micro-dilution assay, EF 2041
Experimental: (§1) The antibacterial efficacy of the present compounds is illustrated by Table III. The minimal inhibitory concentrations (MICs) were determined using a standard broth micro-dilution assay.

[2] = test system: Staphylococcus epidermidis 270; assay: MIC, standard broth micro-dilution assay, SE 270
Experimental: as §1

[3] = test system: Staphylococcus aureus SA1199A; assay: MIC, standard broth micro-dilution assay, SA 1199A
Experimental: as §1

[4] = test system: Sensitive Enterococcus faecium and faecalis; assay: MIC, standard broth micro-dilution assay, Sensitive; settings: geometric mean of 4-6 isolates
Experimental: as §1

[5] = test system: Haemophilus influenzae RD; assay: MIC, standard broth micro-dilution assay, HFRD
Experimental: as §1

[6] = test system: Staphylococcus aureus S13E
Experimental: as §1

[7] = test system: Staphylococcus haemolyticus 415; assay: MIC, standard broth micro-dilution assay, SH 415
Experimental: as §1

[8] = test system: Resistant Enterococcus faecium and faecalis; assay: MIC, standard broth micro-dilution assay, Resistant; settings: geometric mean of 4-6 isolates
Experimental: as §1

[9] = test system: Staphylococcus aureus 446; assay: MIC, standard broth micro-dilution assay, SA 446
Experimental: as §1

[10] = test system: Enterococcus faecalis 276; assay: MIC, standard broth micro-dilution assay, EF 276
Experimental: as §1

[11] = test system: Staphylococcus aureus X400; assay: MIC, standard broth micro-dilution assay, SA X400
Experimental: as §1

[12] = test system: Enterococcus faecium 180-1; assay: MIC, standard broth micro-dilution assay, EF 180-1
Experimental: as §1

[13] = test system: Staphylococcus aureus 447; assay: MIC, standard broth micro-dilution assay, SA 447
Experimental: as §1

Enterococcus faecium 180 = assay: MIC, standard broth micro-dilution assay, EF 180
Experimental: as §1

[14] = test system: Staphylococcus haemolyticus 105; assay: MIC, standard broth micro-dilution assay, SH 105
Experimental: as §1

[15] = test system: Staphylococcus aureus 489; assay: MIC, standard broth micro-dilution assay, SA 489
Experimental: as §1

[16] = test system: Staphylococcus aureus 491; assay: MIC, standard broth micro-dilution assay, SA 491
Experimental: as §1

[17] = test system: Enterococcus gallinarum 245; assay: MIC, standard broth micro-dilution assay, EG 245
Experimental: as §1

Escherichia coli EC14 = assay: MIC, standard broth micro-dilution assay, EC 14
Experimental: as §1

[18] = test system: Staphylococcus aureus SA1199; assay: MIC, standard broth micro-dilution assay, SA 1199
Experimental: as §1

[19] = test system: Staphylococcus aureus X778; assay: MIC, standard broth micro-dilution assay, SA X778
Experimental: as §1

| SMILES | minimal inhibitory concentration (MIC), EF 2041 [1] | minimal inhibitory concentration (MIC), SE 270 [2] | minimal inhibitory concentration (MIC), SA 1199A [3] | minimal inhibitory concentration (MIC), Sensitive [4] | minimal inhibitory concentration (MIC), HFRD [5] | minimal inhibitory concentration (MIC), SA S13E [6] | minimal inhibitory concentration (MIC), SH 415 [7] | minimal inhibitory concentration (MIC), Resistant [8] | minimal inhibitory concentration (MIC), SA 446 [9] | minimal inhibitory concentration (MIC), EF 276 [10] | minimal inhibitory concentration (MIC), SA X400 [11] | minimal inhibitory concentration (MIC), EF 180-1 [12] | minimal inhibitory concentration (MIC), SA 447 [13] | minimal inhibitory concentration (MIC), EF 180 (Enterococcus faecium 180) | minimal inhibitory concentration (MIC), SH 105 [14] | minimal inhibitory concentration (MIC), SA 489 [15] | minimal inhibitory concentration (MIC), SA 491 [16] | minimal inhibitory concentration (MIC), EG 245 [17] | minimal inhibitory concentration (MIC), EC 14 (Escherichia coli EC14) | minimal inhibitory concentration (MIC), SA 1199 [18] | further results |
| --- | --- | --- | --- | --- | --- | --- | --- | --- | --- | --- | --- | --- | --- | --- | --- | --- | --- | --- | --- | --- | --- |
| CC1OC(OC2c3ccc(c(Cl)c3)Oc3cc4cc(c3OC3OC(CO)C(O)C(O)C3OC3CC(C)(NCc5ccc(-c6ccccc6)cc5)C(O)C(C)O3)Oc3ccc(cc3Cl)C(O)C(NC(=O)CCCCCCCc3ccccc3)C(=O)NC(CC(N)=O)C(=O)NC4C(=O)NC3C(=O)NC2C(=O)NC(C(=O)O)c2cc(O)cc(O)c2-c2cc3ccc2O)CC(C)(N)C1O (stereo not drawn) [Example 3, N^1-(8-phenyl-n-octanoyl)-N^DISACC-(p-phenylbenzyl)desleucylA82846B] | 0.5 | 1 | 0.5 | 2.6 | >64 | 2 | 2 | 6.7 | 1 | 0.5 | 1 | ≦.06 | 1 | 1 | 1 | 1 | 1 | 2 | >64 | 1 | minimal inhibitory concentration (MIC), SA X778 [19]: 1 |
| CCCCCCNC(CC(C)C)C(=O)NC1C(=O)NC(CC(N)=O)C(=O)NC2C(=O)NC3C(=O)NC(C(=O)NC(C(=O)O)c4cc(O)cc(O)c4-c4cc3ccc4O)C(OC3CC(C)(N)C(O)C(C)O3)c3ccc(c(Cl)c3)Oc3cc2cc(c3OC2OC(CO)C(O)C(O)C2OC2CC(C)(NCCCCCC)C(O)C(C)O2)Oc2ccc(cc2Cl)C1O [Example 38, N^1-(N-n-hexyl-D-leucine) derivative of N^DISACC-n-hexyl desleucylA82846B] | ≦.06 | 1 | ≦.06 | 0.19 | no | 0.5 | 1 | 6.7 | 1 | 0.25 | 1 | no growth | 1 | 2 | 1 | 0.25 | ≦.06 | 0.5 | >64 | 1 | minimal inhibitory concentration (MIC), SA X778 [19]: 0.5 |
| CC1OC(OC2c3ccc(c(Cl)c3)Oc3cc4cc(c3OC3OC(CO)C(O)C(O)C3OC3CC(C)(NCc5ccc(-c6ccc(Cl)cc6)cc5)C(O)C(C)O3)Oc3ccc(cc3Cl)C(O)C(NC(=O)CCCCCCNC(=O)OC(C)(C)C)C(=O)NC(CC(N)=O)C(=O)NC4C(=O)NC3C(=O)NC2C(=O)NC(C(=O)O)c2cc(O)cc(O)c2-c2cc3ccc2O)CC(C)(N)C1O (stereo not drawn) [Example 9, N^1- [7-(tert-butoxycarboxamido)-n-heptanoyl]-N^DISACC-[p-(p-chlorophenyl)benzyl]desleucylA82846B] | 0.5 | 1 | 0.25 | 0.66 | >64 | 1 | 1 | 4.8 | 2 | 1 | 2 | 0.5 | 2 | 2 | 0.5 | 1 | 1 | 1 | >64 | 1 | minimal inhibitory concentration (MIC), SA X778 [19]: 1 |
| CC1OC(OC2c3ccc(c(Cl)c3)Oc3cc4cc(c3OC3OC(CO)C(O)C(O)C3OC3CC(C)(NCc5ccc(-c6ccccc6)cc5)C(O)C(C)O3)Oc3ccc(cc3Cl)C(O)C(NC(=O)c3ccc(-c5ccccc5)cc3)C(=O)NC(CC(N)=O)C(=O)NC4C(=O)NC3C(=O)NC2C(=O)NC(C(=O)O)c2cc(O)cc(O)c2-c2cc3ccc2O)CC(C)(N)C1O (stereo not drawn) [Example 6, N^1-(p-phenylbenzoyl)-N^DISACC-(p-phenylbenzyl)desleucylA82846B] | 2 | 0.5 | 0.125 | 3.5 | >64 | 1 | 2 | 38 | 1 | 2 | 1 | 0.25 | 2 | 2 | 0.5 | 2 | 0.5 | 1 | >64 | 0.5 | minimal inhibitory concentration (MIC), SA X778 [19]: 0.5 |
| CC(C)C[C@@H](N)C(=O)N[C@H]1C(=O)N[C@@H](CC(N)=O)C(=O)N[C@H]2C(=O)N[C@H]3C(=O)NC(C(=O)N[C@H](C(=O)O)c4cc(O)cc(O)c4-c4cc3ccc4O)[C@H](OC3CC(C)(N)C(O)C(C)O3)c3ccc(c(Cl)c3)Oc3cc2cc(c3OC2OC(CO)C(O)C(O)C2OC2CC(C)(N)C(O)C(C)O2)Oc2ccc(cc2Cl)[C@H]1O (stereo partly drawn) [Example 17, N^1-D-leucine derivative of desleucylA82846B] | ≦.06 | 0.25 | ≦.06 | 0.5 | 32 | 0.25 | 1 | >32 | 0.5 | 0.06 | 0.06 | ≦.06 | 0.5 | 1 | 0.5 | 0.06 | 0.125 | 0.06 | >64 | 0.25 | minimal inhibitory concentration (MIC), SA X778 [19]: 0.06 |

Source: patent US6670446B1, “N1 modified glycopeptides” (Eli Lilly and Company, priority 1998, dated 2003)
